Experimental findings from EP3409671B1, “ISOTHIAZOLE DERIVATIVES AS GPR120 AGONISTS FOR THE TREATMENT OF TYPE II DIABETES” (Janssen Pharmaceutica NV, priority 2014, dated 2015) are described below.

pEC50: −log10 of the molar value.

In this test the target is T1, long form of human GPR120 (Homo sapiens, UniProt Q5NUL3).
T1 construct: host or cells: PathHunter CHO-K1 GPR120 β-Arrestin Cell Line
T1 sequence (Q5NUL3 1-377 isoform Q5NUL3-1): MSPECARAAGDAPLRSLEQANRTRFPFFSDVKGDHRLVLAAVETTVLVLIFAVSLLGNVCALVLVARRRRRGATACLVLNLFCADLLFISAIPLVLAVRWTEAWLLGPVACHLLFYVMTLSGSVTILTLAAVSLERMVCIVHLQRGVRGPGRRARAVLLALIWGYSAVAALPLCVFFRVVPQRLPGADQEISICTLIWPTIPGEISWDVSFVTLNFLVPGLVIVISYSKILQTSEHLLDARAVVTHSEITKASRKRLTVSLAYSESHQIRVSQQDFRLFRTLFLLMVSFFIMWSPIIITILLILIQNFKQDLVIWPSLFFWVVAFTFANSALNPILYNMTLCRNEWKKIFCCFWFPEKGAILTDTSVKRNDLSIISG
The test can be described thus: Human GPR120 DiscoveRx PathHunter Beta-Arrestin assay, Procedure β-arrestin A. The class given is cell-based. Conditions: PathHunter CHO-K1 GPR120 β-Arrestin Cell Line, long form of human GPR120, 3000 cells per well; read-out: hGPR120 β-arrestin A EC50. An excerpt:
The binding of an agonist (medium/long chain fatty acids or small molecule agonists) to the G-protein-coupled receptor GPR120 activates phospholipase C, leading to release of intracellular Ca^+2 through the generation of inositol 1,4,5-trisphosphate (InsP3 or IP3). GPR120 activation can also trigger intracellular signaling via recruitment of Beta-Arrestin. In the present method, agonist-induced activation of the human GPR120 receptor is monitored through the use of PathHunter CHO-K1 GPR120 Beta-Arrestin Cell Line engineered by DiscoveRx, as detailed below. […]
Under these conditions, these fragments can interact and form an active Beta-gal enzyme complex through Enzyme Fragment Complementation (EFC). This active Beta-gal complex can enzymatically hydrolyse the substrate to produce a detectable light signal; therefore, activation as a function of agonist concentration can be expressed as an EC50 value to determine relative compound activities. […]
The plates were read on an EnVision instrument, using Protocol name: Luminescence, Plate type: 384 Costar, Measurement height: 3 mm, Measurement time: 1s, Aperture: 384 Plate aperture. The %activity relative to the positive control was calculated using the following equation: %Activity = (Countcompound −Countvehicle)/(Countpostivite control −Countvehicle) × 100% [formula] […]

The pEC50 is the negative decadic logarithm of the EC50, by convention in mol/L. With `O=C(O)CCc1ccc(OCc2c(C(F)(F)F)nsc2-c2ccc(Cl)cc2)c(Cl)c1Cl` [Cpd 55, 3-(2,3-dichloro-4-[[5-(4-chlorophenyl)-3-(trifluoromethyl)-1,2-thiazol4-yl]methoxy]phenyl) propanoic acid], the pEC50 is 6.75.
The result for `O=C(O)CCc1cc(F)c(OCc2c(Cl)nsc2-c2ccc(Cl)cc2)c(F)c1` [Cpd 75, 3-(4-[[3-chloro-5-(4-chlorophenyl)-1,2-thiazol-4-yl]methoxy]-3,5-difluorophenyl)propanoic acid] reads 6.85.
